{"source": "patent US6563009B1", "about": "“Vasodilator cannabinoid analogs” (priority 1999, dated 2003)", "key": {"[1]": {"system": "mesenteric arterial bed", "conditions": "cited from earlier work; for vasodilation: rat isolated / perfused mesenteric arterial bed"}, "[2]": {"assay": "Neurobehavioral tetrad (tail flick, locomotor activity, ring immobility, core body temperature)", "format": "in vivo, mice", "text": "The protocol of the tail-flick test was as follows. The apparatus that was used for the tail-flick test contained a light source placed directly above a photocell connected to a timer. The mouse was held under a cloth by the technician conducting the experiment. The tail of the test animal was placed over the photocell and the light was turned on. When the test animal felt the discomfort of the heat from the light, it was freely able to remove its tail from the lamp. The photocell than sensed that the tail had moved and the timer was stopped. The typical nontreatment reaction time for an animal subjected to this test was about 2-4 seconds. This test involved a spinal reflex action similar to the removal of a finger from a hot stove. In treated animals, the latency to remove the tail lengthens in proportion to the analgesic potency of the drug. No animal was allowed to remain under the lamp for greater than 10 seconds to prevent any burns to the tail. No animal was subjected twice to this test.\nLocomotor activity, ring immobility, and core body temperature parameters were measured as described in detail by Smith et al. (J. Pharmacol. Exp.Ther. (1994) 270; 219-227). Briefly, spontaneous locomotor activity is expressed as % inhibition vs. control. Mice were placed in individual activity cages 5 minutes post treatment, and interruption of the photocell beams (16 beams/chamber) were recorded for a 10 minute period using a Digiscan Animal Activity Monitor (Omnitech). Core temperature was measured by a rectal thermistor inserted to 25 mm, before and 30 minutes after administration of Abn-cbd. Catalepsy (ring immobility procedure) was expressed as % of total time spent motionless. Test compound can be injected into a tail vain i.v., and measurements are performed at 5 min (spontaneous motility), min (tail flick latency), 60 min (Core temperature) or 90 min (ring immobility) after drug injection.\nAdult ICR mice (25-30 g) were from Harlan (Indianapolis, Ind.). Both male and female animals were used for these studies. Animals were housed four at a cage with standard mouse chow and water ad libitum, and were maintained at […] under a 12:12 light:dark cycle."}, "[3]": {"biological_target": "T1, CB1 receptors (Rattus norvegicus, UniProt P20272)", "T1 construct": "from tissue; host or cells: rat brain P2 membranes", "T1 sequence (P20272 whole entry)": "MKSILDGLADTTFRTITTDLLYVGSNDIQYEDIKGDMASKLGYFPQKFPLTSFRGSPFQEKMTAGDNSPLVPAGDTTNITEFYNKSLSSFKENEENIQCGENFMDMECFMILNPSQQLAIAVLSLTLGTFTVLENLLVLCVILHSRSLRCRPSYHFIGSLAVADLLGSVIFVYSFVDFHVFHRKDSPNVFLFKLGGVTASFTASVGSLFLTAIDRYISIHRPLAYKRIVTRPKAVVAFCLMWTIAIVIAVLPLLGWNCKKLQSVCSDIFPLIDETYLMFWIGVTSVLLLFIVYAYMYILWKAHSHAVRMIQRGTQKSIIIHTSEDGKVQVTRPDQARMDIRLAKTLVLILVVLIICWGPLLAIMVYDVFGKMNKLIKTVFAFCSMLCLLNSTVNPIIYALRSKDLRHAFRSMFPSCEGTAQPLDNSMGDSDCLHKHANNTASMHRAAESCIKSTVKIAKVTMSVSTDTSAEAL", "assay": "3H-CP-55,940 radioligand binding to P2 membranes from rat brain", "conditions": "concentration of 10 μM"}, "[4]": {"system": "mesenteric vascular tone", "assay": "Drug effects on mesenteric vascular tone in perfused mouse mesenteric area (phenylephrine-established tone)", "design": "species or system mice", "conditions": "for inhibition of 0-1848-induced vasodilation: FIG. 2(B), 2(C); for mesenteric vasodilation: injected intraarterially as a 1 mg bolus; for vasodilation (agonist effect): intra arterial bolus, dose-response, FIG. 1; for dose lower than the dose of Abn-cbd required to produce similar vasodilation: relative to Abn-cbd", "protocol": "For measuring drug effects on mesenteric vascular tone in mice, sodium pentobarbital-anesthetized mice were laparotornized and a PE50 cannula was inserted distally into the abdominal aorta. Both renal and both femoral arteries were ligated, the heart removed, and the mesenteric area including the liver was perfused with oxygenated Krebs buffer at 36° C., using a peristaltic pump and a constant flow rate of 0.7 ml/min. Perfusion pressure monitored close to the inflow cannula was 25-30 mmHg, and was increased to 60-70 mmHg by the inclusion of 15 μM phenylephrine in the medium. Vasodilator effects were expressed as % relaxation of established tone, 100% being equal to the difference in perfusion pressure in the absence and presence of phenylephrine.\nPerfusion pressure monitored near the inflow cannula should be 25-30 mmHg (1 mmHg[…]133 Pa) and is increased to 60-70 mmHg by the inclusion of […] phenylephrine in the medium. Vasodilation is expressed as percent relaxation of established tone, 100% being equal to the difference in perfusion pressure in the absence and presence of phenylephrine.\nEvaluation of vasodilator response was performed as in Example 1 except that after addition of either the agonists 0-1602 (FIG. 2A) or 0-1848 (FIG. 2B-2C) as intra arterial bolus injections, the mesenteric preparation was perfused with either drug free buffer (solid circles) or buffer containing […]."}, "[5]": {"system": "mesenteric vascular tone", "assay": "Drug effects on mesenteric vascular tone in perfused mouse mesenteric area (phenylephrine-established tone)", "design": "species or system mice", "conditions": "antagonist at 10 μM in perfusion buffer, FIG. 2(A)"}, "[6]": {"assay": "Blood pressure in urethane-anaesthetized spontaneous hypertensive (SHR) rats", "format": "in vivo", "conditions": "5 animals"}, "[7]": {"system": "mesenteric arterial bed", "assay": "Vascular tone in isolated mesenteric arterial bed, with or without antagonist or endothelial denudation", "design": "species or system rat", "conditions": "100 μg, species not given", "protocol": "The methods used to analyze drug effects on vascular tone in the rat isolated mesenteric arterial bed and to achieve endothelial denudation by brief perfusion with distilled water have been described in detail elsewhere (Wagner et al.(1999), Hypertension 33 (Part II), 429-434). Because of the long lasting vasodilator effect of anandamide, R-methanandamide and abnormal cannabidiol, each preparation was tested with a single dose of the agonist, either in the absence or the presence of an antagonist."}, "[8]": {"biological_target": "vanilloid VRI receptors (Homo sapiens, UniProt Q8NER1)", "sequence (Q8NER1 whole entry)": "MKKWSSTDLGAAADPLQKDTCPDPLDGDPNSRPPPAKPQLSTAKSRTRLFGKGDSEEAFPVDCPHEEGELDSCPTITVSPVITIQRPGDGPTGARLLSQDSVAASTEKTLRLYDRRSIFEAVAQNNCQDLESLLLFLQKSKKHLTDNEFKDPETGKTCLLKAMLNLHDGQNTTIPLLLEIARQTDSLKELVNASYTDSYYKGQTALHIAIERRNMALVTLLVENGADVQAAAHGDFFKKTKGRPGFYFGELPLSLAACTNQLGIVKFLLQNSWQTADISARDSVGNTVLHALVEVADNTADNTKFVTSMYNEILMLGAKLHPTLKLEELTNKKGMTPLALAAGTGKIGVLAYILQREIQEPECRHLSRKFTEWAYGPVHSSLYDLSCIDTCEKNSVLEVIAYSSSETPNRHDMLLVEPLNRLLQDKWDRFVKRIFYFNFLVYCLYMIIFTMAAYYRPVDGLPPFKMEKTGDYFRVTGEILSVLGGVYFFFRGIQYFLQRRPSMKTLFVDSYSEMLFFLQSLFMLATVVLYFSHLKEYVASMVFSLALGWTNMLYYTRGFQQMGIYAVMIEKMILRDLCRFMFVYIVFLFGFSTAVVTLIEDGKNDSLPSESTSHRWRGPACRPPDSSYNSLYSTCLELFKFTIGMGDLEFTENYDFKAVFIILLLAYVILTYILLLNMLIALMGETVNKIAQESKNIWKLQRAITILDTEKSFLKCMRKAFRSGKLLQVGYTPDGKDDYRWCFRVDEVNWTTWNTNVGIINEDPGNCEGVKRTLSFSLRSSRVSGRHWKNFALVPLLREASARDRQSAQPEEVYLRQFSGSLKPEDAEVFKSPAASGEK", "conditions": "cited from earlier work"}, "[9]": {"conditions": "cited from earlier work; for neurobehavioral effects: summary statement, no dose"}, "[10]": {"biological_target": "T1, CB1 receptors", "conditions": "cited from earlier work; for binding to CB1 receptors: summary statement, no concentration"}, "[11]": {"conditions": "10 mg/kg i.v., anesthetized rats; prevented by 3 mg/kg SR141716A; cited from earlier work"}, "[12]": {"conditions": "10 mg/kg i.v., anesthetized mice; prevented by 3 mg/kg SR141716A; cited from earlier work"}}, "note": "Like-named read-outs stand apart in the source and are kept apart here.", "data": [{"smiles": "CCCCC/C=C\\C/C=C\\C/C=C\\C/C=C\\CCCC(=O)NCCO", "note": "[anandamide, arachidonyl ethanolamide]", "values": [{"measurement": "vasodilation", "setting": "[1]", "result": "elicits prolonged vasodilation"}]}, {"smiles": "C=C(C)[C@@H]1CCC(C)=CC1c1c(O)c(I)c(C)c(I)c1O", "note": "(single isomer, unassigned; (-)) [0-1868, (−)-2-(3-3,4-trans-p-menthadien-(1,8)-4,6-diiodoorcinol]", "values": [{"measurement": "response in the tetrad of standard neurobehavioral effects", "setting": "[2]; 30 μg/kg", "result": "does not elicit a response"}, {"measurement": "binding to CB1 receptors", "setting": "[3]", "result": "no significant binding"}, {"measurement": "inhibition of 0-1848-induced vasodilation", "setting": "[4]; antagonist in perfusion buffer", "result": "dose-dependent pronounced inhibition"}, {"measurement": "mesenteric vasodilation", "setting": "[4]", "result": "did not elicit mesenteric vasodilation"}]}, {"smiles": "C=C(C)[C@@H]1CCC(C)=CC1c1c(O)cc(C)cc1O", "note": "(single isomer, unassigned; (-)) [0-1821, (−)-2-(3-3,4-trans-p-menthadien-(1,8)-orcinol]", "values": [{"measurement": "response in the tetrad of standard neurobehavioral effects", "setting": "[2]; 30 μg/kg", "result": "does not elicit a response"}, {"measurement": "binding to CB1 receptors", "setting": "[3]", "result": "no significant binding"}, {"measurement": "inhibition of 0-1602-induced vasodilation", "setting": "[4]; FIG. 2(A), antagonist in perfusion buffer", "result": "dose-dependent pronounced inhibition"}, {"measurement": "mesenteric vasodilation", "setting": "[4]", "result": "did not elicit vasodilation"}, {"measurement": "inhibition of the vasodilatory effect of compound 0-1602", "setting": "[5]", "result": "almost complete inhibition"}]}, {"smiles": "C=C(C)[C@@H]1CCC(C)=CC1c1ccc(O)cc1O", "note": "(some centres unmarked) [0-1848]", "values": [{"measurement": "response in the tetrad of standard neurobehavioral effects", "setting": "[2]; dose not given", "result": "does not elicit a response"}, {"measurement": "vasodilation (agonist effect)", "setting": "[4]", "result": "dose-dependent pronounced vasodilation"}, {"measurement": "dose lower than the dose of Abn-cbd required to produce similar vasodilation", "setting": "[4]", "result": 80, "unit": "×"}, {"measurement": "hypotensive effect (reduction in mean blood pressure)", "setting": "[6]", "result": "elicits a hypotensive effect"}]}, {"smiles": "C=C(C)[C@@H]1CCC(C)=CC1c1c(C)cc(O)cc1O", "note": "(some centres unmarked) [0-1602]", "values": [{"measurement": "response in the tetrad of standard neurobehavioral effects", "setting": "[2]; dose not given", "result": "does not elicit a response"}, {"measurement": "vasodilation (agonist effect)", "setting": "[4]", "result": "dose-dependent pronounced vasodilation"}, {"measurement": "dose lower than the dose of Abn-cbd required to produce similar vasodilation", "setting": "[4]", "result": 80, "unit": "×"}, {"measurement": "vasodilation after endothelial denudation", "setting": "[7]; n=3, P<0.005", "result": "18%±2"}, {"measurement": "vasodilation in the presence of SR141716A", "setting": "[7]; n=3, P<0.005", "result": "15%±3"}, {"measurement": "vasodilation", "setting": "[7]; n=4", "result": "54%±2"}]}, {"smiles": "Oc1cc2c(cc1O)CN(C(=S)NCCc1ccc(Cl)cc1)CCC2", "note": "[capsazepine]", "values": [{"measurement": "Kd", "setting": "[8]", "result": 285, "unit": "nM"}]}, {"smiles": "CCCCCCC(C)(C)c1cc(O)c2c(c1)OC(C)(C)[C@@H]1CC=C(CO)C[C@@H]21", "note": "[HU-210]", "values": [{"measurement": "vasodilation", "setting": "[1]", "result": "do not have a vasodilator effect"}]}, {"smiles": "C=C(C)[C@@H]1CCC(C)=C[C@H]1c1c(O)cc(CCCCC)cc1O", "note": "[cannabidiol]", "values": [{"measurement": "neurobehavioral effects", "setting": "[9]", "result": "devoid of neurobehavioral effects"}, {"measurement": "binding to CB1 receptors", "setting": "[10]", "result": "does not bind"}, {"measurement": "antagonism of the vasodilator effect of Abn-cbd", "setting": "[1]; species not stated", "result": "able to antagonize"}, {"measurement": "mesenteric vasodilation", "setting": "[1]; species not stated", "result": "does not elicit mesenteric vasodilation"}]}, {"smiles": "C=C(C)[C@@H]1CCC(C)=CC1c1c(O)cc(O)cc1CCCCC", "note": "(single isomer, unassigned; (-)) [Abn-cbd, (−)-4-(3-3,4-trans-p-menthadien-1,8)-yl-olivetol]", "values": [{"measurement": "marijuana-like neurobehavioral effects", "setting": "[9]; doses up to 60 mg/kg, mice", "result": "does not cause marijuana-like neurobehavioral effects"}, {"measurement": "neurobehavioral effects", "setting": "[9]", "result": "does not elicit cannabinoid-like neurobehavioral effects"}, {"measurement": "displacement of a potent known ligand from CB1 cannabinoid receptors", "setting": "[10]; concentrations up to 100 uM, rat brain plasma membrane preparation", "result": "failed to displace"}, {"measurement": "binding to CB1 receptors", "setting": "[10]", "result": "does not bind"}, {"measurement": "vasodilator response in the presence of L-NAME and indomethacin", "setting": "[1]; 100 μM L-NAME and 10 μM indomethacin in the perfusion buffer", "result": "remains unchanged"}, {"measurement": "vasodilation in the presence of capsazepine", "setting": "[1]; bolus injection of 4 mg, 5 μM capsazepine", "result": "same long lasting vasodilation"}, {"measurement": "vasodilation", "setting": "[1]", "result": "caused vasodilation"}, {"measurement": "hypotension", "setting": "[11]", "result": "cause hypotension"}, {"measurement": "hypotension", "setting": "[12]", "result": "cause hypotension"}]}, {"smiles": "C=C(C)[C@@H]1CCC(C)=CC1c1c(O)cccc1O", "note": "(some centres unmarked) [0-1847]", "values": [{"measurement": "response in the tetrad of standard neurobehavioral effects", "setting": "[2]; 30 μg/kg", "result": "does not elicit a response"}, {"measurement": "binding to CB1 receptors", "setting": "[3]", "result": "no significant binding"}, {"measurement": "inhibition of 0-1848-induced vasodilation", "setting": "[4]; antagonist in perfusion buffer", "result": "dose-dependent pronounced inhibition"}, {"measurement": "mesenteric vasodilation", "setting": "[4]", "result": "did not elicit mesenteric vasodilation"}]}, {"smiles": "CCCCCc1cc(O)c2c(c1)OC(C)(C)[C@@H]1CCC(C)=C[C@@H]21", "note": "[THC, Δ9-trahydrocannabinol]", "values": [{"measurement": "vasodilation", "setting": "[1]", "result": "do not have a vasodilator effect"}]}, {"smiles": "Cc1c(C(=O)c2cccc3ccccc23)c2cccc3c2n1[C@H](CN1CCOCC1)CO3", "note": "[WIN 55212-2]", "values": [{"measurement": "vasodilation", "setting": "[1]", "result": "do not have a vasodilator effect"}]}]}
